According to patent US20130102619A1, “2-PYRIDYLOXY-4-NITRILE OREXIN RECEPTOR ANTAGONISTS” (priority 2011, published 2013):

Legend:
[1] = molecular target: OX1 receptor (hOX1) (Homo sapiens, UniProt O43613); assay: radioligand binding assay, orexin-1 receptor (membranes from CHO cells); settings: CHO cell membranes, read-out: hOX1 hKi
Experimental: In a typical experiment the OX1 and OX2 receptor antagonistic activity of the compounds of the present invention was determined in accordance with the following experimental method. For intracellular calcium measurements, Chinese hamster ovary (CHO) cells expressing the rat orexin-1 receptor or the human orexin-2 receptor, are grown in Iscove's modified DMEM containing 2 mM L-glutamine, […], 1% hypoxanthine-thymidine supplement, 100 U/ml penicillin, 100 ug/ml streptomycin and 10% heat-inactivated fetal calf serum (FCS). The cells are seeded at 20,000 cells/well into Becton-Dickinson black 384-well clear bottom sterile plates coated with poly-D-lysine. All reagents were from GIBCO-Invitrogen Corp. The seeded plates are incubated overnight at 37° C. and 5% CO2. Ala-6,12 human orexin-A as the agonist is prepared as a 1 mM stock solution in 1% bovine serum albumin (BSA) and diluted in assay buffer (HBSS containing 20 mM HEPES, 0.1% BSA and 2.5 mM probenecid, pH7.4) for use in the assay at a final concentration of 70 pM. Test compounds are prepared as 10 mM stock solution in DMSO, then diluted in 384-well plates, first in DMSO, then assay buffer. On the day of the assay, cells are washed 3 times with 100 ul assay buffer and then incubated for 60 min (37° C., 5% CO2) in 60 ul assay buffer containing 1 uM Fluo-4AM ester, 0.02% pluronic acid, and 1% BSA. The dye loading solution is then aspirated and cells are washed 3 times with 100 ul assay buffer. 30 ul of that same buffer is left in each well. Within the Fluorescent Imaging Plate Reader (FLIPR, Molecular Devices), test compounds are added to the plate in a volume of 25 ul, incubated for 5 min and finally 25 ul of agonist is added. Fluorescence is measured for each well at 1 second intervals for 5 minutes and the height of each fluorescence peak is compared to the height of the fluorescence peak induced by 70 pM Ala-6,12 orexin-A with buffer in place of antagonist. […] Alternatively, compound potency can be assessed by a radioligand binding assay (described in Bergman et. al. Bioorg. Med. Chem. Lett. 2008, 18, 1425-1430) in which the inhibition constant (Ki) is determined in membranes prepared from CHO cells expressing either the OX1 or OX2 receptor. The intrinsic orexin receptor antagonist activity of a compound which may be used in the present invention may be determined by these assays.

[2] = molecular target: T1, human orexin-2 receptor (Homo sapiens (Human), UniProt O43614); assay: radioligand binding assay, orexin-2 receptor (membranes from CHO cells); settings: CHO cell membranes, read-out: hOX2 hKi
Experimental: (§1) The utility of the compounds in accordance with the present invention as orexin receptor OX1R and/or OX2R antagonists may be readily determined without undue experimentation by methodology well known in the art, including the “FLIPR Ca^2+ Flux Assay” (Okumura et al., Biochem. Biophys. Res. Comm. 280:976-981, 2001). In a typical experiment the OX1 and OX2 receptor antagonistic activity of the compounds of the present invention was determined in accordance with the following experimental method. For intracellular calcium measurements, Chinese hamster ovary (CHO) cells expressing the rat orexin-1 receptor or the human orexin-2 receptor, are grown in Iscove's modified DMEM containing 2 mM L-glutamine, […], 1% hypoxanthine-thymidine supplement, 100 U/ml penicillin, 100 ug/ml streptomycin and 10% heat-inactivated fetal calf serum (FCS). The cells are seeded at 20,000 cells/well into Becton-Dickinson black 384-well clear bottom sterile plates coated with poly-D-lysine. All reagents were from GIBCO-Invitrogen Corp. The seeded plates are incubated overnight at 37° C. and 5% CO2. Ala-6,12 human orexin-A as the agonist is prepared as a 1 mM stock solution in 1% bovine serum albumin (BSA) and diluted in assay buffer (HBSS containing 20 mM HEPES, 0.1% BSA and 2.5 mM probenecid, pH7.4) for use in the assay at a final concentration of 70 pM. Test compounds are prepared as 10 mM stock solution in DMSO, then diluted in 384-well plates, first in DMSO, then assay buffer. On the day of the assay, cells are washed 3 times with 100 ul assay buffer and then incubated for 60 min (37° C., 5% CO2) in 60 ul assay buffer containing 1 uM Fluo-4AM ester, 0.02% pluronic acid, and 1% BSA. The dye loading solution is then aspirated and cells are washed 3 times with 100 ul assay buffer. 30 ul of that same buffer is left in each well. Within the Fluorescent Imaging Plate Reader (FLIPR, Molecular Devices), test compounds are added to the plate in a volume of 25 ul, incubated for 5 min and finally 25 ul of agonist is added. Fluorescence is measured for each well at 1 second intervals for 5 minutes and the height of each fluorescence peak is compared to the height of the fluorescence peak induced by 70 pM Ala-6,12 orexin-A with buffer in place of antagonist. […] Alternatively, compound potency can be assessed by a radioligand binding assay (described in Bergman et. al. Bioorg. Med. Chem. Lett. 2008, 18, 1425-1430) in which the inhibition constant (Ki) is determined in membranes prepared from CHO cells expressing either the OX1 or OX2 receptor. The intrinsic orexin receptor antagonist activity of a compound which may be used in the present invention may be determined by these assays.

[3] = molecular target: rat orexin-1 receptor (Rattus norvegicus (Rat), UniProt P56718); assay: FLIPR Ca2+ Flux Assay, CHO cells expressing rat orexin-1 receptor; type: cell-based; settings: 70 pM Ala-6,12 orexin-A agonist, read-out: hOX1R FLIPR IC50;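 also: concentration giving 50% inhibition of the agonist-induced calcium response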
Experimental: as §1

[4] = molecular target: T1, human orexin-2 receptor; assay: FLIPR Ca2+ Flux Assay, CHO cells expressing human orexin-2 receptor; type: cell-based; settings: 70 pM Ala-6,12 orexin-A agonist, read-out: hOX2R FLIPR IC50
Experimental: as §1

rat orexin-1 receptor, sequence (P56718 whole entry): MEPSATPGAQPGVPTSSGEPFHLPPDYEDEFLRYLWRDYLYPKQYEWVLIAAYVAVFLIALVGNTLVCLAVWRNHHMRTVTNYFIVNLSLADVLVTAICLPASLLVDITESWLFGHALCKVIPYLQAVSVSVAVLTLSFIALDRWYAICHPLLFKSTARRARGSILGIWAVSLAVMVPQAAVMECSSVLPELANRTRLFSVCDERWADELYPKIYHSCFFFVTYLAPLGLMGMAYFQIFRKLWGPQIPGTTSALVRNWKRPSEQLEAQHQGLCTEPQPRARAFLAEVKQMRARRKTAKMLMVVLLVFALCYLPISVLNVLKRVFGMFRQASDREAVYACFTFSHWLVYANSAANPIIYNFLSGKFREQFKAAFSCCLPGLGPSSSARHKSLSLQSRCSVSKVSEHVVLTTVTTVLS
T1 sequence (O43614 whole entry): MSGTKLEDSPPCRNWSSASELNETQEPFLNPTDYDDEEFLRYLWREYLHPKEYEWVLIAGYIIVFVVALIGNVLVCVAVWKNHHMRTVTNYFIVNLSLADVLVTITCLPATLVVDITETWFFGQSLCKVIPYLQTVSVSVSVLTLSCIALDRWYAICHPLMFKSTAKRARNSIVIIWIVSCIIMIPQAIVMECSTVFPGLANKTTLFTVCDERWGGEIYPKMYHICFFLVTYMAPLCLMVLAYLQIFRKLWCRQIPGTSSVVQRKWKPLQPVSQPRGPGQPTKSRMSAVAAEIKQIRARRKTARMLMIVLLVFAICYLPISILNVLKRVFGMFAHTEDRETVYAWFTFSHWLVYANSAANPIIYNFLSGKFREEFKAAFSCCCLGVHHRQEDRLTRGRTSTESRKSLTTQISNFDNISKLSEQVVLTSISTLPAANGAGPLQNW

SMILES | Ki [1] [nM] | Ki [2] [nM] | IC50 [3] [nM] | IC50 [4] [nM]
Cc1cccc(C(=O)N2C[C@H](Oc3cc(C#N)ccn3)CC[C@H]2C)c1-n1nccn1 [Example 5, 2-{[(3R,6R)-6-methyl-1-{[3-methyl-2-(2H-1,2,3-triazol-2-yl)phenyl]carbonyl}piperidin-3-yl]oxy}pyridine-4-carbonitrile] | 669 | 3 | 2330 | 17
C[C@@H]1CC[C@@H](Oc2cc(C#N)ccn2)CN1C(=O)c1ccc(F)cc1-c1ncccn1 [Example 34, 2-({(3R,6R)-1-[(4-fluoro-2-pyrimidin-2-ylphenyl)carbonyl]-6-methylpiperidin-3-yl}oxy)pyridine-4-carbonitrile] | 868 | 3.5 | > 10000 | 48
COc1ccc(C(=O)N2C[C@H](Oc3cc(C#N)ccn3)CC[C@H]2C)c(-n2nccn2)n1 [Example 17, 2-{[(3R,6R)-1-{[6-methoxy-2-(2H-1,2,3-triazol-2-yl)pyridin-3-yl]carbonyl}-6-methylpiperidin-3-yl]oxy}pyridine-4-carbonitrile] | 5640 | 15 | > 10000 | 82
C[C@@H]1CC[C@@H](Oc2cc(C#N)ccn2)CN1C(=O)c1ccsc1-n1nccn1 [Example 10, 2-{[(3R,6R)-6-methyl-1-{[2-(2H-1,2,3-triazol-2-yl)thiophen-3-yl]carbonyl}piperidin-3-yl]oxy}pyridine-4-carbonitrile] | 3570 | 5.9 | > 10000 | 29
